In patent publication US9505772B2, “Aromatic ring compound” (TAKEDA PHARMACEUTICAL COMPANY LIMITED, priority 2012, dated 2016) one finds inhibition data, which are given here for 19 compounds.

The term inhibition denotes the drop in the measured response relative to a control, in per cent.

Experiment [1] deals with T1, human MCHR1 (Homo sapiens, UniProt Q99705).
T1 construct: expressed in transfected cells; host or cells: CHO cell clone 57 (described in WO01/82925); membrane fraction
As to the kind of experiment: Human MCH receptor 1 (MCHR1) binding inhibitory activity, binding assay with [125I]-MCH(4-19). The following applies: test compound 0.1 μM, human MCHR1-expressing CHO cell membrane fraction, read-out: Binding inhibition rate % (0.1 μM). The method, then: Determination of Human MCH Receptor 1 (MCHR1) Binding Inhibitory Activity of Test Compound Using Binding Assay
1. Preparation of Membrane Fraction
Using human MCHR1(=SLC-1 receptor)-expressing CHO cell clone 57 described in WO01/82925, MCHR1-expressing CHO cellular membrane fractions were prepared by the following method.
In phosphate buffered saline (pH 7.4) supplemented with 5 mM EDTA (ethylenediaminetetraacetic acid) were respectively suspended human MCHR1-expressing CHO cells (1×10^8 cells) and centrifuged. Homogenate buffer (10 mL, 10 mM NaHCO3, 5 mM EDTA, pH 7.5, 0.5 mM PMSF (phenylmethylsulfonyl fluoride), 20 mg/L leupeptin, 4 mg/L E-64, 1 mg/L pepstatin A) was added to the pellets of the cells and, using Polytron Homogenizer, the mixture was homogenated. The supernatant obtained after centrifugation at 400×g for 10 min was further centrifuged at 100,000×g for 1 hr to give precipitate of the membrane fraction. The precipitate were suspended in 2 mL of assay buffer [20 mM Tris-HCl (pH 7.5), 5 mM EDTA, 0.5 mM PMSF, 20 mg/L leupeptin, 4 mg/L E-64, 1 mg/L pepstatin A]. The membrane fractions were suspended in assay buffer to a protein concentration of 2 mg/mL, and after dispensing, preserved at −80° C. and used upon thawing each time when in use.
The MCHR1 ligand binding inhibitory activity of the test compound was determined as follows.
An MCHR1-expressing CHO cellular membrane fraction (173 μL) diluted with an assay buffer was dispensed to a 96 well polypropylene plate (3363, Corning). DMSO solution (2 μL), 33 μM cold MCH(1-19) diluted with DMSO solution (2 μL), or a test compound solution diluted with DMSO solution to various concentrations (2 μL) was added, and lastly, [^125I]-MCH(4-19) diluted with assay buffer (hereinafter, sometimes to be referred to as “hot MCH”, 25 μL) was added to each well. The mixture was reacted with stirring at room temperature for 1 hr, and the plate was set on FilterMate Harvester (PerkinElmer). Using a treating glass filter plate (GF/C, PerkinElmer) with polyethyleneimine, which had been previously set, the plate was suction-filtered and washed three times with washing buffer (50 mM Tris-HCl buffer pH 7.5). The glass filter plate was dried, MicroScinti0 (PerkinElmer) was added at 25 μL/well, and the resulting radioactivity was measured by TopCount liquid scintillation counter (PerkinElmer). The binding inhibition rate of the test compound was calculated by the following formula. Binding inhibition (%)=100−(radioactivity upon addition of test compound and hot MCH−radioactivity upon addition of cold MCH and hot MCH solution)/(radioactivity upon addition of DMSO solution and hot MCH−radioactivity upon addition of cold MCH and hot MCH solution)×100
The binding inhibition rates (%) of test compounds (0.1 μM) as measured using human MCHR1-expressing CHO cell are shown in Table 2.

Experiment [2] concerns the target T1, human MCHR1. As to the kind of experiment: MCH receptor 1 antagonistic activity, Ca2+ mobilization assay. The class given is cell-based. The settings on record: test compound 0.1 μM; human MCHR1-expressing CHO cells (clone #4); MCH(4-19) 2 nM; read-out: Inhibition rate % (0.1 μM). The method, then:
Measurement of MCH Receptor 1 Antagonistic Activity of Test Compound Using Ca^2+ Mobilization Assay
Using an expression vector plasmid introduced with human MCHR1 gene for expression in animal cells, human MCHR1 gene was introduced into CHO cells (CHO dhfr^−) by Lipofectamine LTX (Invitrogen). The cells were cultured in selection MEMα medium [445 mL of MEMα medium without nucleic acid and added with 5 mL of Penicillin-Streptomycin (Invitrogen) and 50 mL of dialyzed fetal bovine serum]. Colony 24 clones grown in the selection medium, which were human MCHR1 gene-expressing CHO cell candidates, were selected. […] In the following test, this human MCHR1-expressing CHO cell (clone #4) was used. An integrated dispensing function fluorometer (CellLux, PerkinElmer) was used for Ca^2+ mobilization assay. The CHO cells were sown in a 96 well plate (type 3904, Corning) with a black wall and clear well bottom at a density of 20000 cells/well, and cultured in an incubator for about 24 hr at 5% CO2, 37° C. The medium was removed, and the cells were washed with phosphate buffered saline (PBS). A Ca^2+ indicator dye reagent (DOJINDO LABORATORIES, Ca screening no-wash kit Fluo4) was added at 100 μL/well, and the dye was allowed to penetrate into the cell for 30 min in an incubator at 5% CO2, 37° C. The plate was set on a plate reader. First, a test compound solution diluted with an assay buffer [10 mM HEPES (pH 7.4), 1× assay buffer containing 0.1% BSA (DOJINDO LABORATORIES, attached to Ca screening no-wash kit Fluo4)] or DMSO solution was added at 50 μL/well, and then ligand MCH (4-19) peptide (final concentration 2 nM) diluted with assay buffer or DMSO was added at 50 μL/well, during which changes in intracellular fluorescence were measured at 2 second intervals. The antagonistic activity of the test compound was calculated by the following formula and shown as an inhibition rate (%) wherein the intracellular fluorescence activity resulting from the stimulation by the addition of ligand MCH (4-19) peptide was 100% and that of the well added with DMSO solution alone was 0%. inhibitory rate (%)=100−[fluorescence activity upon addition of test compound and MCH(4-19) peptide solution−fluorescence activity upon addition of DMSO solution only]/[fluorescence activity upon addition of DMSO solution and MCH(4-19) peptide solution−fluorescence activity upon addition of DMSO solution only]×100
The inhibition rates (%) of test compounds (0.1 μM) as antagonist activity measured using human MCHR1-expressing CHO cells (clone #4) are shown in the following Table 3.
Background: Calcium flux is commonly read through the fluorescence of an indicator in the cells.

T1 sequence (Q99705 whole entry): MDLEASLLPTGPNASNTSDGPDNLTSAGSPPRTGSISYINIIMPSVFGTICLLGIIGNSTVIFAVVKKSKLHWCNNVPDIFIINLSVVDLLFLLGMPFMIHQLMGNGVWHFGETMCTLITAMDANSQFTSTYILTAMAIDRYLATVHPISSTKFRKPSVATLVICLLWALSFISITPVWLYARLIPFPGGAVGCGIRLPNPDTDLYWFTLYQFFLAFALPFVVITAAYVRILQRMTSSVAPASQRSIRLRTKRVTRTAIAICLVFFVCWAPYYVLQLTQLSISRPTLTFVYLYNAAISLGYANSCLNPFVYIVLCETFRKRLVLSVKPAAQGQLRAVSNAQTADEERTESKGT

As to `Cc1cc(-n2ccc3oc(-c4ccc(Cl)cc4)cc3c2=O)ccc1OCC1(C#N)CC1` [Example 33, 1-((4-(2-(4-Chlorophenyl)-4-oxofuro[3,2-c]pyridin-5(4H)-yl)-2-methylphenoxy)methyl)cyclopropanecarbonitrile], the results for the inhibition at 0.1 µM in experiment [1] and in experiment [2] were 84% and 34%, respectively.
Consider `COc1cc(-n2ccc3oc(-c4ccccc4)cc3c2=O)ccc1OCC1(C#N)CC1` [Example 20, 1-((2-Methoxy-4-(4-oxo-2-phenylfuro[3,2-c]pyridin-5(4H)-yl)phenoxy)methyl)cyclopropanecarbonitrile], for which the inhibition at 0.1 µM in experiment [1] stood at 58%.
As to `COc1cc(-n2ccc3oc(-c4ccc(C(F)(F)F)cc4)cc3c2=O)ccc1OCC1(C#N)CC1` [Example 27, 1-((2-Methoxy-4-(4-oxo-2-(4-(trifluoromethyl)phenyl)furo[3,2-c]pyridin-5(4H)-yl)phenoxy)methyl)cyclopropanecarbonitrile], in experiment [1], the inhibition at 0.1 µM is 60%.
For the compound `COc1cc(-n2ccc3oc(-c4ccc(Cl)cn4)cc3c2=O)ccc1OCC1(C#N)CC1` [Example 19, 1-((4-(2-(5-Chloropyridin-2-yl)-4-oxofuro[3,2-c]pyridin-5(4H)-yl)-2-methoxyphenoxy)methyl)cyclopropanecarbonitrile], the values for the inhibition at 0.1 µM in experiment [1] and in experiment [2] were 77% and 88%, respectively.
As to `COc1cc(-n2ccc3oc(-c4ccc(Cl)cc4)cc3c2=O)cnc1OCC1(C#N)CC1` [Example 23, 1-(((5-(2-(4-Chlorophenyl)-4-oxofuro[3,2-c]pyridin-5(4H)-yl)-3-methoxypyridin-2-yl)oxy)methyl)cyclopropanecarbonitrile], the results for the inhibition at 0.1 µM in experiment [1] and in experiment [2] were 73% and 72%, respectively.
On to `COc1cc(-n2ccc3oc(-c4ccc(Cl)cc4)cc3c2=O)ccc1OCC1COC1` [Example 40, 2-(4-Chlorophenyl)-5-(3-methoxy-4-(oxetan-3-ylmethoxy)phenyl)furo[3,2-c]pyridin-4(5H)-one], for which the inhibition at 0.1 µM in experiment [1] was determined as 91%; in experiment [2], 95%.
Taken in the same sequence, the figures for `COc1cc(-n2ccc3oc(-c4ccc(Cl)cc4)cc3c2=O)ccc1OCC1CCOC1` (centres unmarked) [Example 39, 2-(4-Chlorophenyl)-5-(3-methoxy-4-(tetrahydrofuran-3-ylmethoxy)phenyl)furo[3,2-c]pyridin-4(5H)-one] were 96% and 84%.
Taken in the same sequence, the figures for `COc1cc(-n2ccc3oc(-c4ccc(Cl)cc4)cc3c2=O)ccc1OCC1CCCO1` (centres unmarked) [Example 36, 2-(4-Chlorophenyl)-5-(3-methoxy-4-(tetrahydrofuran-2-ylmethoxy)phenyl)furo[3,2-c]pyridin-4(5H)-one] were 95% and 78%.
Regarding `CCc1cc(-n2ccc3oc(-c4ccc(Cl)cc4)cc3c2=O)ccc1OCC1(C#N)CC1` [Example 47, 1-((4-(2-(4-Chlorophenyl)-4-oxofuro[3,2-c]pyridin-5(4H)-yl)-2-ethylphenoxy)methyl)cyclopropanecarbonitrile], the inhibition at 0.1 µM in experiment [1] came to 74%.
On to `COc1cc(-n2ccc3oc(-c4ccc(Cl)cc4)cc3c2=O)ccc1OCC1CC1(F)F` (centres unmarked) [Example 44, 2-(4-Chlorophenyl)-5-(4-((2,2-difluorocyclopropyl)methoxy)-3-methoxyphenyl)furo[3,2-c]pyridin-4(5H)-one], for which the figures for the inhibition at 0.1 µM in experiment [1] and in experiment [2] were 85% and 45%, respectively.
As for `COC(=O)c1ccc(-n2ccc3oc(-c4ccc(Cl)cc4)cc3c2=O)cc1OC` [Example 24, Methyl 4-(2-(4-chlorophenyl)-4-oxofuro[3,2-c]pyridin-5(4H)-yl)-2-methoxybenzoate], the inhibition at 0.1 µM in experiment [1] stood at 47%.
For `N#CC1(COc2ccc(-n3ccc4oc(-c5ccc(Cl)cc5)cc4c3=O)cc2Cl)CC1` [Example 8, 1-((2-Chloro-4-(2-(4-chlorophenyl)-4-oxofuro[3,2-c]pyridin-5(4H)-yl)phenoxy)methyl)cyclopropanecarbonitrile], in experiment [1], the inhibition at 0.1 µM turned out to be 76%.
For `COc1cc(-n2ccc3oc(-c4ccc(Cl)cc4)cc3c2=O)ccc1OCCCC(N)=O` [Example 51, 4-(4-(2-(4-Chlorophenyl)-4-oxofuro[3,2-c]pyridin-5(4H)-yl)-2-methoxyphenoxy)butanamide], the inhibition at 0.1 µM in experiment [1] came to 90%.
Consider `COc1cc(-n2ccc3oc(-c4ccccc4F)cc3c2=O)ccc1OCC1(C#N)CC1` [Example 15, 1-((4-(2-(2-Fluorophenyl)-4-oxofuro[3,2-c]pyridin-5(4H)-yl)-2-methoxyphenoxy)methyl)cyclopropanecarbonitrile], for which the inhibition at 0.1 µM in experiment [1] is 17%.
As for `COc1cc(-n2ccc3oc(-c4ccc(Cl)cc4)cc3c2=O)ccc1OCC(N)=O` [Example 50, 2-(4-(2-(4-Chlorophenyl)-4-oxofuro[3,2-c]pyridin-5(4H)-yl)-2-methoxyphenoxy)acetamide], in experiment [1], the inhibition at 0.1 µM stood at 85%.
Same read-out and setting: the value for `COc1cc(-n2ccc3oc(-c4ccc(Cl)cc4)cc3c2=O)ccc1O` [Example 30, 2-(4-Chlorophenyl)-5-(4-hydroxy-3-methoxyphenyl)furo[3,2-c]pyridin-4(5H)-one] was 66%; that for `CCC1(COc2ccc(-n3ccc4oc(-c5ccc(Cl)cc5)cc4c3=O)cc2OC)COC1` [Example 48, 2-(4-Chlorophenyl)-5-(4-((3-ethyloxetan-3-yl)methoxy)-3-methoxyphenyl)furo[3,2-c]pyridin-4(5H)-one] was 71%.
Same read-out and setting: the value for `COc1cc(-n2ccc3oc(-c4ccc(F)cn4)cc3c2=O)ccc1OCC1(C#N)CC1` [Example 21, 1-((4-(2-(5-Fluoropyridin-2-yl)-4-oxofuro[3,2-c]pyridin-5(4H)-yl)-2-methoxyphenoxy)methyl)cyclopropanecarbonitrile] was 42%.
The same measure, in the same setting: the same measure for `COc1cc(-n2ccc3oc(-c4ccc(Cl)cc4)cc3c2=O)ccc1C(=O)NCC1CC1` [Example 45, 4-(2-(4-Chlorophenyl)-4-oxofuro[3,2-c]pyridin-5(4H)-yl)-N-(cyclopropylmethyl)-2-methoxybenzamide]: 74%.
